Data on two compounds can be found in patent US6676932B2, “Ultraviolet absorbent, photostabilizer, ultraviolet ray-absorbing composition, photostabilized composition and external preparation for skin” (Shiseido Co., Ltd., priority 2001, dated 2004).

A short description of series [1]: Stabilization effect on perfume under daylight exposure (Test Examples 92 to 181). Type of series: physicochemical. On the set-up: key: ◯: no change; Δ: almost no change; x: change. Particulars: daylight exposure (80 MJ). The protocol:
Each test sample was prepared for observation of the change of the odor of the test sample (determined by perfume coordinator) before and after daylight exposure (80 MJ).

Series [2] in a line: Dye stabilization effect in blend with sequestering agents (Test Examples 212 to 275). It counts as physicochemical. Particulars: daylight exposure (80 MJ). In outline: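 Colour difference (ΔE) measured by spectrophotometer in Lab coordinates before and after daylight exposure (80 MJ), relative to pre-exposure values (L1, a1, b1); appearance change also assessed visually.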

Where [3] appears, read: base perfume Spicy, photostabilizer 0.2 wt %.
Setting [4] is: natural perfume Lavender oil, photostabilizer 0.1 wt %.
[5] abbreviates: natural perfume Ylang ylang oil, photostabilizer 0.2 wt %.
Setting [6] is: synthetic perfume Citral, photostabilizer 0.1 wt %.
Where [7] appears, read: synthetic perfume Linalool, photostabilizer 0.05 wt %.
The mark [8] stands for this setting: synthetic perfume Linalyl acetate, photostabilizer 0.1 wt %.

For `Oc1cc(N2CCOCC2)cnn1` [3-Hydroxy-5-morpholinopyridazine, 3-hydroxy-5-morpholinopyridazine], the odor determination result is reported as “◯” in series [1] (base perfume Muge, photostabilizer 0.05 wt %); “◯” in series [1] (setting [3]); “◯” in series [1] (natural perfume Jasmine oil, photostabilizer 0.05 wt %); “◯” in series [1] (setting [4]); “◯” in series [1] (setting [5]); “◯” in series [1] (setting [6]). The odor determination entry in series [1] (setting [7]) is listed as “◯”; in series [1] (setting [8]), “◯”; in series [1] (synthetic perfume Rose oxide, photostabilizer 0.2 wt %), “◯”. Besides, the “Δ E” value came to 0.61 in series [2] (dye Yellow 5 (Sunset Yellow FCF) 0.0001, photostabilizer 0.01, no sequestering agent); 0.52 in series [2] (dye Yellow 5 (Sunset Yellow FCF) 0.0001, photostabilizer 0.01, with ethylenediaminetetraacetate trisodium 0.03); 0.55 in series [2] (dye Yellow 5 (Sunset Yellow FCF) 0.0001, photostabilizer 0.01, with sodium metaphosphate 0.03); 0.46 in series [2] (dye Yellow 5 (Sunset Yellow FCF) 0.0001, photostabilizer 0.01, with sodium polyphosphate 0.03); 1.68 in series [2] (dyes Red 227 (Acid Fuchsine D) 0.0001 + Yellow 203 (Quinoline Yellow WS) 0.0001, no sequestering agent, photostabilizer blend amount 0.01); 0.98 in series [2] (dyes Red 227 (Acid Fuchsine D) 0.0001 + Yellow 203 (Quinoline Yellow WS) 0.0001, with sodium metaphosphate 0.02, photostabilizer blend amount 0.01).

On to `Oc1nncc(N2CCCCC2)c1N1CCCCC1` [4,5-Dipiperidino-3-hydroxypyridazine], for which the odor determination result is listed as “◯” in series [1] (base perfume Rose, photostabilizer 0.05 wt %); “◯” in series [1] (setting [3]); “◯” in series [1] (base perfume Woody, photostabilizer 0.1 wt %); “◯” in series [1] (setting [4]); “◯” in series [1] (natural perfume Rose oil, photostabilizer 0.05 wt %); “◯” in series [1] (setting [5]). Also, the odor determination entry in series [1] (setting [6]), in series [1] (setting [7]) and in series [1] (setting [8]) was “◯” in each case. In addition, the “Δ E” value in series [2] (dye Red 227 (Acid Fuchsine D) 0.0001, photostabilizer 0.01, no sequestering agent) was found to be 0.98; in series [2] (dye Red 227 (Acid Fuchsine D) 0.0001, photostabilizer 0.01, with ethylenediaminehydroxyethyl trisodium triacetate 0.02), 0.52; in series [2] (dye Red 227 (Acid Fuchsine D) 0.0001, photostabilizer 0.01, with ethylenediaminetetraacetate trisodium 0.02), 0.72; in series [2] (dye Red 227 (Acid Fuchsine D) 0.0001, photostabilizer 0.01, with sodium metaphosphate 0.02), 0.61.
